Patent US8710233B2 (Gruenenthal GmbH, priority 2005, dated 2014)
Where two headings read alike, the source gives them in different places.

Key:
Format in all cases: cell-based
[1] = target: T1, vanilloid receptor 1 (VR1/TRPV1) of the rat species (Rattus norvegicus, UniProt O35433); assay: FLIPR Ca2+ influx assay on rat dorsal root ganglia cells (pharmacological method I)
T1 construct: The spinal column is removed from decapitated rats; from tissue; host or cells: primary cells dissociated from rat dorsal root ganglia
T1 sequence (O35433 whole entry): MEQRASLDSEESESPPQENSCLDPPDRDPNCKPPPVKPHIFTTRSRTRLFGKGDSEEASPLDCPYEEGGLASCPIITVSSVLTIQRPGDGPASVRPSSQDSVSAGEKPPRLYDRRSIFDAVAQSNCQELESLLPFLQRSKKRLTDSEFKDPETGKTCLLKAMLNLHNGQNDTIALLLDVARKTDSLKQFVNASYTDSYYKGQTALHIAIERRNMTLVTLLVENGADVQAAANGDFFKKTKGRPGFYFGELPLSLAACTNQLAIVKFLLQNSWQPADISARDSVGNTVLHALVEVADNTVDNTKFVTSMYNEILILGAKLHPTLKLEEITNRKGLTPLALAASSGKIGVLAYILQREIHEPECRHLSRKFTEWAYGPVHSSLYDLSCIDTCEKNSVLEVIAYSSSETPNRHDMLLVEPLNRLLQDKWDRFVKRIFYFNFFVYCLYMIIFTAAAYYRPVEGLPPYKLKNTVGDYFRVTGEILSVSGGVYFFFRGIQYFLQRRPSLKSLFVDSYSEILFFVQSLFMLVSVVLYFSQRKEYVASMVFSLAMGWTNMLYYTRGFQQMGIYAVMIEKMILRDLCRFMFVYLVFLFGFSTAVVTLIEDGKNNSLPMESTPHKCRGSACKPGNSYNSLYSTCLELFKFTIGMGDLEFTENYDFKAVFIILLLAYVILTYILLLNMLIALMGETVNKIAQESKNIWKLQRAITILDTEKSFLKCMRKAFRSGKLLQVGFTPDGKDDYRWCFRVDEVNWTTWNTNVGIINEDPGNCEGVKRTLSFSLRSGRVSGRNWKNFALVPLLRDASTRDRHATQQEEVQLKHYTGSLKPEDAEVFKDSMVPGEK
Text: I. Functional Investigation of the Vanilloid Receptor 1 (VR1/TRPV1 Receptor)
The agonistic or antagonistic action of the substances to be investigated on the vanilloid receptor 1 (VR1/TRPV1) of the rat species may be determined by the following assay. According to this assay, the influx of Ca^2+ through the receptor channel is quantified with the assistance of a Ca^2+-sensitive dye (type Fluo-4, Molecular Probes Europe BV, Leiden, Netherlands) in a Fluorescent Imaging Plate Reader (FLIPR, Molecular Devices, Sunnyvale, USA).
The spinal column is removed from decapitated rats and is placed directly in cold, i.e. located in an ice bath, HBSS buffer (Hank's buffered saline solution, Gibco Invitrogen GmbH, Karlsruhe, Germany) combined with 1 vol. % (percent by volume) of an AA solution (antibiotic/antimycotic solution, PAA, Pasching, Austria). The spinal column is cut open longitudinally and removed together with fasciae from the spinal canal. The dorsal root ganglia (DRGs) are then removed and in turn stored in cold HBSS buffer combined with 1 vol. % of an AA solution. The DRGs, from which all traces of blood and spinal nerves have been removed, are in each case transferred into 500 μL of cold collagenase type 2 (PAA, Pasching, Austria) and incubated for 35 minutes at 37° C. […] Once incubation is complete, the enzyme solution is carefully removed by pipette and the DRGs, which are left behind, are in each case combined with 500 μL of complete medium.
The DRGs are in each case repeatedly suspended, drawn by means of a syringe through […], no. 12 and no. 16 cannulas and transferred into 50 mL Falcon microtubes and each tube is made up to 15 mL with complete medium. The contents of each Falcon microtube are in each case filtered through a 70 μm Falcon filter insert and centrifuged for 10 minutes at 1200 revolutions and room temperature. The resultant pellet is in each case resuspended in 250 μL of complete medium and the cell count determined.
The number of cells in the suspension is adjusted to 3×10^5 per mL and a 150 μL portion of this suspension is in each case placed in a well of the cell culture plate which has been coated as described above.
The cells are then loaded with 2 μM Fluo-4 and 0.01 vol. % Pluronic F127 (Molecular Probes Europe BV, Leiden, Netherlands) in HBSS buffer (Hank's buffered saline solution, Gibco Invitrogen GmbH, Karlsruhe, Germany) for 30 min at 37° C., washed 3× with HBSS buffer and, after a further 15 minutes' incubation at room temperature, used for Ca^2+ measurement in the FLIPR assay. […] Quantification proceeds by measuring the highest fluorescence intensity (FC, fluorescence counts) over time.
The FLIPR protocol comprises 2 additions of substance. The compounds to be tested (10 μM) are firstly pipetted onto the cells and Ca^2+ influx is compared with the control (capsaicin 10 μM). This provides the percentage activation relative to the Ca^2+ signal after addition of 10 μM of capsaicin (CP). After 5 minutes' incubation, 100 nM of capsaicin are added and the influx of Ca^2+ is again determined.
Desensitising agonists and antagonists result in suppression of Ca^2+ influx. The percentage inhibition in comparison with the maximum achievable inhibition with 10 μM capsaicin is calculated.
Triplicate determinations (n═3) are performed and these are repeated in at least 3 independent experiments […].

[2] = target: VR1/TRPV1 receptor (Homo sapiens, UniProt Q8NER1); assay: IC50 (human) after pH stimulus; conditions: for IC50: table 4; for inhibition in percent, IC50 (human) after pH stimulus / inhibition at 1 µM: @ 1 μM, ne = no effect
Chain of VR1/TRPV1 receptor (Q8NER1 whole entry): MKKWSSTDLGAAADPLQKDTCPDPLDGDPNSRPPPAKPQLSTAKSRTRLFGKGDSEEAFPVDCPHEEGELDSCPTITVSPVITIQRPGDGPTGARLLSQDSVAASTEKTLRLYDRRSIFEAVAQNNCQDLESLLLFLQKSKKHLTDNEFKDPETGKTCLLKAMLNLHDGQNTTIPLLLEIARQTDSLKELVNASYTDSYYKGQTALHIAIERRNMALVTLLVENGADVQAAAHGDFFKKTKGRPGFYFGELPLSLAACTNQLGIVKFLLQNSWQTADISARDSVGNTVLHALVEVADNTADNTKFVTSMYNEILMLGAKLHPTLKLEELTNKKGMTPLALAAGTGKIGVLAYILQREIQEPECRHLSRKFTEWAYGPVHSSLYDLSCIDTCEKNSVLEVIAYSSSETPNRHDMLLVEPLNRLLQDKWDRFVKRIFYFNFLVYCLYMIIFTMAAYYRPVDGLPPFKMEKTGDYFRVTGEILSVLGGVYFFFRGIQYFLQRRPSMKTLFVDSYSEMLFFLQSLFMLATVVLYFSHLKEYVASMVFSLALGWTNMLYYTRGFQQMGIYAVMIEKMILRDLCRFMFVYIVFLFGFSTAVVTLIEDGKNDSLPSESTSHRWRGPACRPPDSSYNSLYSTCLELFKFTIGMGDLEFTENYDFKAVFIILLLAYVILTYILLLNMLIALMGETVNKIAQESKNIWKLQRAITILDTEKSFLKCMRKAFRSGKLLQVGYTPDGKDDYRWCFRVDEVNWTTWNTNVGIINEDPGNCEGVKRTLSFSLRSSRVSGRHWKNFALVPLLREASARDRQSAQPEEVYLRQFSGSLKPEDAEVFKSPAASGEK

[3] = target: T2, vanilloid receptor (VR1) (Homo sapiens, UniProt Q8NER1); assay: FLIPR Ca2+ influx assay on CHO K1 cells transfected with the VR1 gene (pharmacological method II); conditions: table 4; capsaicin; read-out: Ki (human) Cap.
T2 construct: expressed in transfected cells; host or cells: CHO K1 cells (ECACC), stably transfected
T2 sequence (Q8NER1 whole entry): as above

[4] = table 4, capsaicin, read-out: Ki (rat) Cap.
[5] = read-out: inhibition in percent, IC50 (human) after pH stimulus

| SMILES | IC50 [2] [nM] | Ki [3] [nM] | also measured |
| --- | --- | --- | --- |
| CCCCOc1nc(C(F)(F)F)ccc1CNC(=O)C(C)c1ccc(NS(C)(=O)=O)c(F)c1 (stereo not shown) [Example 19, N-((2-butoxy-6-(trifluoromethyl)pyridin-3-yl)methyl)-2-(3-fluoro-4-(methylsulfonamido)phenyl)propanamide] |  |  | Ki ([1]; Table 2, displacement of capsaicin (100 nM), Cheng-Prusoff, read-out: Ki (rat)): 1 nM |
| CC1CCN(c2nc(-c3ccc(F)cc3)ccc2CNC(=O)C(C)c2ccc(NS(C)(=O)=O)c(F)c2)CC1 (stereo not shown) [Example 184, 2-(3-fluoro-4-methylsulfonamido-phenyl)-N-[6′-(4-fluoro-phenyl)-4-methyl-3,4,5,6-tetrahydro-2H-[1,2′]bipyridinyl-3′-ylmethyl]-propionamide] |  |  | Ki [1, 4]: 77 nM |
| CC1CC(C)CN(c2nc(C(F)(F)Cl)ccc2CNC(=O)C(C)c2ccc(NS(C)(=O)=O)c(F)c2)C1 (stereo not shown) [Example 187, N-[6′-(chloro-difluoro-methyl)-3,5-dimethyl-3,4,5,6-tetrahydro-2H-[1,2′]bipyridinyl-3′-ylmethyl]-2-(3-fluoro-4-methylsulfonamido-phenyl)-propionamide] | 39.6 |  | Ki [1, 4]: 0.5 nM |
| CC(C(=O)NCc1ccc(C(F)(F)F)nc1/C=C/C1CCCCC1)c1ccc(NS(C)(=O)=O)c(F)c1 (stereo not shown) [Example 346, N-[2-(2-cyclohexyl-vinyl)-6-trifluoromethyl-pyridin-3-ylmethyl]-2-(3-fluoro-4-methylsulfonamido-phenyl)-propionamide] | 66 | 0.7 |  |
| Cc1cc(C(F)(F)F)nc(OC2CCCC2)c1CNC(=O)C(C)c1ccc(NS(C)(=O)=O)c(F)c1 (stereo not shown) [Example 349] |  | 44 | inhibition in percent, IC50 (human) after pH stimulus [2]: ne @ 1 μM |
| COc1cc(OC)cc(-c2cc(C(F)(F)F)ccc2CNC(=O)C(C)c2ccc(NS(C)(=O)=O)c(F)c2)c1 (stereo not shown) [Example 350, N-(3′,5′-dimethoxy-5-trifluoromethyl-biphenyl-2-ylmethyl)-2-(3-fluoro-4-methylsulfonamido-phenyl)-propionamide] |  | 5.8 | inhibition at 0.1 µM [2, 5]: 4%; inhibition at 1 µM [2, 5]: 52% |
| CCCCC(CCCC)Oc1nc(C(F)(F)F)ccc1CNC(=O)C(C)c1ccc(NS(C)(=O)=O)c(F)c1 (stereo not shown) [Example 352, N-[2-(1-butyl-pentyloxy)-6-trifluoromethyl-pyridin-3-ylmethyl]-2-(3-fluoro-4-methylsulfonamido-phenyl)-propionamide] |  | 0.5 | inhibition at 5 µM ([2]; @ 5 μM, read-out: inhibition in percent, IC50 (human) after pH stimulus): 34%; inhibition at 10 µM ([2]; @ 10 μM, read-out: inhibition in percent, IC50 (human) after pH stimulus): 61% |
| CC(C)COc1nc(C(C)(C)C)ccc1CNC(=O)C(C)c1ccc(NS(C)(=O)=O)c(F)c1 (stereo not shown) [Example 353, N-(6-tert-butyl-2-isobutoxy-pyridin-3-ylmethyl)-2-(3-fluoro-4-methylsulfonamido-phenyl)-propionamide] |  | 0.6 | inhibition at 0.1 µM [2, 5]: 28%; inhibition at 1 µM [2, 5]: 25% |
| CC(C(=O)NCc1ccc(C(F)(F)F)nc1C#Cc1ccccc1)c1ccc(NS(C)(=O)=O)c(F)c1 (stereo not shown) [Example 354, 2-(3-fluoro-4-methylsulfonamido-phenyl)-N-(2-phenylethynyl-6-trifluoromethyl-pyridin-3-ylmethyl)-propionamide] | 85 | 0.8 |  |
| COCCCOc1nc(C(F)(F)F)ccc1CNC(=O)C(C)c1ccc(NS(C)(=O)=O)c(F)c1 (stereo not shown) [Example 355, 2-(3-fluoro-4-methylsulfonamido-phenyl)-N-[2-(3-methoxy-propoxy)-6-trifluoromethyl-pyridin-3-ylmethyl]-propionamide] | 2200 | 15.3 |  |
| Cc1cc(C(F)(F)F)nc(N2CCC(Cc3ccccc3)CC2)c1CNC(=O)C(C)c1ccc(NS(C)(=O)=O)c(F)c1 (stereo not shown) [Example 356, N-(4-benzyl-4′-methyl-6′-trifluoromethyl-3,4,5,6-tetrahydro-2H-[1,2′]bipyridinyl-3′-ylmethyl)-2-(3-fluoro-4-methylsulfonamido-phenyl)-propionamide] |  | 9.2 | inhibition in percent, IC50 (human) after pH stimulus [2]: ne @ 1 μM |
| CCOCCCOc1nc(C(F)(F)F)ccc1CNC(=O)C(C)c1ccc(NS(C)(=O)=O)c(F)c1 (stereo not shown) [Example 361, N-[2-(3-ethoxy-propoxy)-6-trifluoromethyl-pyridin-3-ylmethyl]-2-(3-fluoro-4-methylsulfonamido-phenyl)-propionamide] | 462 | 9.7 |  |
| CC(C(=O)NCc1ccc(C(F)(F)F)nc1OCCOc1ccccc1)c1ccc(NS(C)(=O)=O)c(F)c1 (stereo not shown) [Example 362, 2-(3-fluoro-4-methylsulfonamido-phenyl)-N-[2-(2-phenoxy-ethoxy)-6-trifluoromethyl-pyridin-3-ylmethyl]-propionamide] | 161 | 1.5 |  |
| COc1cc(COc2nc(C(F)(F)F)ccc2CNC(=O)C(C)c2ccc(NS(C)(=O)=O)c(F)c2)cc(OC)c1 (stereo not shown) [Example 363, N-[2-(3,5-dimethoxy-benzyloxy)-6-trifluoromethyl-pyridin-3-ylmethyl]-2-(3-fluoro-4-methylsulfonamido-phenyl)-propionamide] | 76 | 0.7 |  |
| CCCOc1nc(C(C)(C)C)ccc1CNC(=O)C(C)c1ccc(NS(C)(=O)=O)c(F)c1 (stereo not shown) [Example 369, N-((6-tert-butyl-2-propoxypyridin-3-yl)methyl)-2-(3-fluoro-4-(methylsulfonamido)phenyl)propanamide] | 182 | 1.7 |  |
| COCCCOc1nc(C(C)(C)C)ccc1CNC(=O)C(C)c1ccc(NS(C)(=O)=O)c(F)c1 (stereo not shown) [Example 370, N-((6-tert-butyl-2-(3-methoxypropoxy)pyridin-3-yl)methyl)-2-(3-fluoro-4-(methylsulfonamido)phenyl)propanamide] | 250 | 5.6 |  |
| COc1nc(C(C)(C)C)ccc1CNC(=O)C(C)c1ccc(NS(C)(=O)=O)c(F)c1 (stereo not shown) [Example 372, N-((6-tert-butyl-2-methoxypyridin-3-yl)methyl)-2-(3-fluoro-4-(methylsulfonamido)phenyl)propanamide] |  | 14.3 | inhibition at 1 µM [2, 5]: 52% |
| CCOc1nc(C(C)(C)C)ccc1CNC(=O)C(C)c1ccc(NS(C)(=O)=O)c(F)c1 (stereo not shown) [Example 373, N-((6-tert-butyl-2-ethoxypyridin-3-yl)methyl)-2-(3-fluoro-4-(methylsulfonamido)phenyl)propanamide] | 492 | 14.8 |  |
| CC(C)Oc1nc(C(C)(C)C)ccc1CNC(=O)C(C)c1ccc(NS(C)(=O)=O)c(F)c1 (stereo not shown) [Example 374, N-((6-tert-butyl-2-isopropoxypyridin-3-yl)methyl)-2-(3-fluoro-4-(methylsulfonamido)phenyl)propanamide] | 314 | 2.3 |  |
| CCCCCCOc1nc(C(F)(F)F)ccc1CNC(=O)C(C)c1ccc(NS(C)(=O)=O)c(F)c1 (stereo not shown) [Example 376, 2-(3-fluoro-4-(methylsulfonamido)phenyl)-N-((2-(hexyloxy)-6-(trifluoromethyl)pyridin-3-yl)methyl)propanamide] | 20 | 0.8 |  |
| CCOCCOc1nc(C(C)(C)C)ccc1CNC(=O)C(C)c1ccc(NS(C)(=O)=O)c(F)c1 (stereo not shown) [Example 378, N-((6-tert-butyl-2-(2-ethoxyethoxy)pyridin-3-yl)methyl)-2-(3-fluoro-4-(methylsulfonamido)phenyl)propanamide] | 325 | 23.9 |  |
